Source: US12447121B2, “Composition for promoting the skin microbiome” (BEIERSDORF AG, priority 2020, dated 2025)
Entries after “also recorded” stand apart in the source; their conditions may differ.

Experiments:
skin microbiome = assay: In vivo volunteer study: microbial colony count of skin microbiome samples; design: species or system human; conditions: applied in the form of a skin care composition to the facial skin (as worded in the summary)
Experimental: An in vivo study with 31 volunteers was conducted to examine whether the growth-enhancing compounds that were found effective in the in vitro test can also promote cell growth of the microorganisms in the skin microbiome in vivo when applied to the skin in the form of a lotion. For this purpose, a carrier lotion was prepared to which the test compounds, i.e. the compounds identified as growth-enhancing in the in vitro assays of Example 1, were added. The test formulations were prepared by mixing the compounds to be tested into the carrier lotion. The test formulations were composed as follows: • Formulation 20: […] Carrier lotion+1% urea, 1% sodium Lactate, 1% caprylic/capric triglycerides […] For measuring the microbial colony count, the test site was rinsed with swabs ([…] GmbH, […], Germany) by 3×10 lanes using 2 ml rinsing buffer (12.49 g/L Na2HPO; 0.63 g/L KH2PO4 in molecular grade H2O) in 15 ml Falcon tubes. The sample material was then plated within 60 minutes after collection on Columbia-Sheep-Blood-Tween (COST) agar plates and subsequently incubated. […] After incubation, the bacterial colonies on agar plates were counted using the Countermat Flash.

S. epidermidis [1] = assay: In vitro growth assay (OD, absorption at 600 nm); format: cell-based; conditions: CASO deficiency medium
Experimental: Overnight cultures of S. epidermidis were inoculated in 20 ml CASO medium and incubated at 37° C. The culture was then diluted and adjusted to an OD600 of 0.25. From this suspension, the starting culture is prepared with a concentration of 5×10^5 CFU/ml by a 1:200 dilution in CASO deficiency medium. Subsequently, solutions containing the different nitrogen, carbon, and lipid sources were mixed with the start cultures and 200 μl/well were pipetted into a 96 well flat transparent plate, at least in triplets. The plate was placed in a Tecan Reader at 37° C. and Absorption was measured at 600 nm every hour over a period of 24-30 h.

S. epidermidis [2] = assay: In vitro growth assay (plating, colony count); format: cell-based; conditions: added to low nutrient medium, 37° C., plated and counted; FIGS. 1 and 2
Experimental: Potential growth-enhancing compounds that are effective in the stabilization of the microbiome were tested by the following in vitro assay. Overnight cultures of S. epidermidis is inoculated in 20 ml CASO medium and incubated at 37° C. The culture was then diluted and adjusted to an OD600 of 0.25. From this suspension, the starting culture is prepared with a concentration of 5×10^5 CFU/ml by a 1:200 dilution in CASO deficiency medium. Subsequently, solutions containing the different active ingredients were mixed with the start cultures and incubated in a thermal mixer at 37° C. by shaking. Samples are taken at the respective time points for testing, diluted with NaCl and plated out on CASO plates using the spiral plater. The plates are incubated for 24 h at 37° C. and then counted.

Molecule | cell number of the resident bacteria (skin microbiome) | growth of S. epidermidis (summary in words of Tables 2 and 3) (S. epidermidis [1]) | growth of S. epidermidis within 24 hours (S. epidermidis [2])
CC(O)C(=O)O (centres unmarked) [lactic acid] | increase | – | –
maltodextrin | – | support the growth | –
CC(O)C(=O)O (centres unmarked) [Lactate, lactate] | – | support the growth | significant growth; also recorded: significantly promotes the growth
OC[C@H]1O[C@@](CO)(O[C@H]2O[C@H](CO)[C@@H](O)[C@H](O)[C@H]2O)[C@@H](O)[C@@H]1O [Sucrose, saccharose] | – | support the growth | –
OC[C@H]1O[C@H](O[C@H]2[C@H](O)[C@@H](O)C(O)O[C@@H]2CO)[C@H](O)[C@@H](O)[C@@H]1O (mixture of isomers) [Maltose, maltose] | – | support the growth | –
CC(=O)C(=O)O [pyruvic acid] | significantly increase | – | –
O=C(CO)[C@@H](O)[C@H](O)[C@H](O)CO [Fructose, fructose] | – | support the growth | –
